Measurements from BindingDB's records for doi:10.1021/jm020424z (Merck Research Laboratories, 2002).

Target: Carboxypeptidase A1 (Bos taurus) (UniProt P00730)
Assay: The compound was evaluated for the inhibition of Carboxypeptidase A

Carboxypeptidase A1 (Bos taurus), sequence (P00730 whole entry, looked up): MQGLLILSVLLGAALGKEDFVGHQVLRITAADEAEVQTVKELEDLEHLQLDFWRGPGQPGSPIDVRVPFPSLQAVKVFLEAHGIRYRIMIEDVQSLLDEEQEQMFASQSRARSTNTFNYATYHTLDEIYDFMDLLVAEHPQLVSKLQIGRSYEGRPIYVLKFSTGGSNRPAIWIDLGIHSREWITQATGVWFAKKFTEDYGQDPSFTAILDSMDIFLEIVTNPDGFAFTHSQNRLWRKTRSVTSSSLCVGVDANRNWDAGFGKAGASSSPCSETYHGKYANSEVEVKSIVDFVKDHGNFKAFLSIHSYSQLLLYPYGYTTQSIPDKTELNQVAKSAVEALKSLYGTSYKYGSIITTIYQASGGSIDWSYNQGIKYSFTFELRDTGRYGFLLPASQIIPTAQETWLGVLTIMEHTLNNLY

For O=C(O)CCC(Cc1ccccc1)C(=O)O (configuration not stated) [2-Benzyl-pentanedioic acid], the Ki was 5000 nM.

In the case of O=C(O)C[C@@H](Cc1ccccc1)C(=O)O [2-benzylbutanedioic acid], the Ki is reported as 450 nM.
